In ChEMBL document CHEMBL1134281, “Monosaccharide-linked inhibitors of O(6)-methylguanine-DNA methyltransferase (MGMT): synthesis, molecular modeling, and structure-activity relationships” (J Med Chem, 2001):

Molecular target: T1, Methylated-DNA--protein-cysteine methyltransferase (Homo sapiens, UniProt P16455)
T1 sequence (P16455 whole entry): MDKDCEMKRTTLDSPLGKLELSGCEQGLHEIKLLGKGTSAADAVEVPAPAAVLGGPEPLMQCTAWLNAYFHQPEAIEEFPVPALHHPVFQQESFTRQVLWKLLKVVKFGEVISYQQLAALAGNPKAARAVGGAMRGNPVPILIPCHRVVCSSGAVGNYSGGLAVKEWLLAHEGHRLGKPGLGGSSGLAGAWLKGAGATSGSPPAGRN
Assay: In vitro inhibition of MGMT using cell free extracts from HeLa S3 cells

Structure (SMILES)	IC50 [nM]
Nc1nc(OCc2ccccc2)c2[nH]nnc2n1	38
Nc1nc(OCc2cc(Br)cs2)c2[nH]cnc2n1 [LOMEGUATRIB]	9
